Reference: patent US20240368133A1, “Compounds for the Treatment of Pain, in Particular, Neuropathic Pain, and/or Other Diseases or Disorders that are Associated with AT2R and/or AT2R Mediated Signaling” (Confo Therapeutics N.V., priority 2021, published 2024)

Assays:
Type in all cases: in vitro ADME
[1] = Plasma protein binding (equilibrium dialysis), mouse; details: for fraction unbound: equilibrium dialysis, read-out: PPB (%), mouse (converted); for recovery: plasma (undiluted, freshly thawed), PPB assay recovery
Method: (§1) The assay was performed in a multiple-use 96-well dialysis unit (HTD96b dialyzer). Each individual well unit consisted of 2 chambers separated by a vertically aligned dialysis membrane of predetermined pore size (MWCO 12-14 kDa). 120 μl of non-diluted freshly thawed mouse, rat or human plasma spiked with the compound (1 μM, final DMSO concentration 1%) was added to one chamber and the same volume of PBS buffer pH 7.4 to the other chamber. HTD96b dialyzer was covered with adhesive sealing film and incubated at 37° C., shaking at 100 rpm for 5 hours.
(§2) For samples preparation, an aliquot of the content of each chamber had been mixed with the same volume of the blank opposite matrix. In order to define non-specific loss of the compound during this assay, a standard solution was created by mixing an aliquot of spiked plasma with blank buffer without dialysis. Samples were diluted 10-fold with 100% acetonitrile with subsequent plasma proteins sedimentation by centrifuging at 6000 rpm for 5 minutes. Supernatants were analyzed using HPLC system coupled with tandem mass spectrometer (API3000 PE Sciex). Acquisition and analysis of the data were performed using Analyst 1.5.2 software (PE Sciex). The percentage of plasma protein bound compound and recovery were calculated using following equations: […]
(§3) The percentage of plasma protein bound compound and recovery were calculated using following equations:
(§4) with: • Cplasma=peak area of the compound in the plasma/peak area of the IS in the plasma • Cbuffer=peak area of the compound in the buffer/peak area of the IS in the buffer • ‘Concentration’ is the ratio between compound and IS peak areas
(§5) The recovery is a control, which allows to be sure that the compound has not a non-specific binding to the plates or is not stable in the plasma in these conditions:
(§6) with: • PBS=(ratio of the peak area of the compound/peak area of the IS) in the PBS compartment after 4 h • Plasma=(ratio of the peak area of the compound/peak area of IS) in the plasma compartment after 4 h • Recov=Recovery=ratio of the peak are of the compound I the well recovery/peak area of the IS in the well recovery at TO
(§7) The solubility of the compound in the final test concentration in PBS is checked by microscope to indicate whether precipitation is observed or not. If a precipitate is observed, no data of PPB is generated.

[2] = Plasma protein binding (equilibrium dialysis), rat; details: for fraction unbound: equilibrium dialysis, read-out: PPB (%), rat (converted); for recovery: plasma (undiluted, freshly thawed), PPB assay recovery
Method: as §1, §2
Prior to the start of the experiment, dialysis membranes (membrane strips, MW cut-off 12-14 kDa, HTDialysis, Cat.NoJl 101) are soaked in deionized water for 60 min, transferred and left overnight in 20% EtOH. The day of experiment, a 10 mM stock solution of the compound in DMSO is diluted with a factor 10 in DMSO. This solution is further diluted in freshly thawed human, rat, mouse or dog plasma (BioIVT) with a final concentration of 5 μM and final DMSO concentration of 0.5%.
From this solution, an aliquot of 50 μL was taken and matrix matched with an equivalent volume of PBS for the recovery plate, after which 6 volumes of STOP solution were added to the recovery plate. For these recovery plates, no incubation is done.
Equilibrium Dialysis Device (96-well, model HTD96b, HTDialysis, Cat. No. #1006) is assembled according to manufacturer's instructions. Immediately after assembly, a volume of 100 μL of plasma (spiked with compound) is placed on one side of the well and another 100 μL of blank PBS buffer are added to the other side, respectively. Each compound is tested in duplicate. Acebutolol and Nicardipine are used as low and very high binding controls, except for the mouse, Caffeine is used as low binder instead Acebutolol. If the PPB values for these controls are not in the range determined by the historical data, the assay is not validated.
The plate is incubated for 4 h at 37° C. while shaking at 230 rpm. Thereafter, an aliquot of 50 μL is taken from each side of the well and matrix matched (mix of equal volumes of spiked plasma with blank PBS buffer and samples from buffer compartment with blank plasma). Matrix matched samples are further mixed with 3 volumes of STOP solution (acetonitrile/MeOH 2/1 with diclofenac as internal standard). After brief mixing and centrifugation (at 2400 rpm for 15 min, at +4° C.), the supernatant is filtered and transferred into new 96-well plates for analysis on LC-MS/MS (systems API4000).
as §3, §4
The recovery is a control, which allows to be sure that the compound has not a non-specific binding to the plates or is not stable in the plasma in these conditions: […]

[3] = Plasma protein binding (equilibrium dialysis), human; details: for fraction unbound: equilibrium dialysis, read-out: PPB (%), human (converted); for recovery: plasma (undiluted, freshly thawed), PPB assay recovery
Method: as §1, §2, §3, §4, §5, §6, §7

## CC(C)Cc1ccc(-c2nn[nH]n2)c(N2CCN(Cc3nc4ccccc4c(=O)[nH]3)CC2)c1 [Compound A-31, 2-[[4-[5-isobutyl-2-(2H-tetrazol-5-yl)phenyl]piperazin-1-yl]methyl]-3H-quinazolin-4-one]
[1]
  fraction unbound: < 0.05
  recovery: 88%
[2]
  fraction unbound: < 0.1
  recovery: 84%
[3]
  fraction unbound: < 0.08
  recovery: 82%

## CC(C)Cc1ccc(-c2nn[nH]n2)c(N2CCN(Cc3cccnn3)CC2)c1 [Compound A-90, 3-[[4-[5-isobutyl-2-(2H-tetrazol-5-yl)phenyl]piperazin-1-yl]methyl]pyridazine]
[1]
  fraction unbound: 0.22
  recovery: 97%
[2]
  fraction unbound: 0.23
  recovery: 105%
[3]
  fraction unbound: 0.05
  recovery: 83%

## CC(C)Cc1cc(F)c(-c2nn[nH]n2)c(N2CCN(Cc3cccnn3)C(C)C2)c1 (stereo not shown) [Compound A-173, 3-[[4-[3-fluoro-5-isobutyl-2-(2H-tetrazol-5-yl)phenyl]-2-methyl-piperazin-1-yl]methyl]pyridazine]
[1]
  fraction unbound: 0.12
  recovery: 92%
[2]
  fraction unbound: 0.19
  recovery: 100%
[3]
  fraction unbound: 0.05
  recovery: 94%

## CC(C)Cc1cc(F)c(-c2nn[nH]n2)c(N2CCN(Cc3cccnn3)[C@@H](C)C2)c1 [Compound A-174, 3-[[(2S)-4-[3-fluoro-5-isobutyl-2-(2H-tetrazol-5-yl)phenyl]-2-methyl-piperazin-1-yl]methyl]pyridazine]
[1]
  fraction unbound: 0.027
  recovery: 95%
[2]
  fraction unbound: 0.017
  recovery: 90%
[3]
  fraction unbound: 0.026
  recovery: 99%

## CCC1CN(c2cc(CC(C)C)cc(F)c2-c2nn[nH]n2)CCN1Cc1cccnn1 (stereo not shown) [Compound A-178, 3-[[2-ethyl-4-[3-fluoro-5-isobutyl-2-(2H-tetrazol-5-yl)phenyl]piperazin-1-yl]methyl]pyridazine]
[1]
  fraction unbound: 0.1
  recovery: 93%
[2]
  fraction unbound: 0.12
  recovery: 96%
[3]
  fraction unbound: 0.04
  recovery: 99%

## CCC1CN(Cc2cccnn2)CCN1c1cc(CC(C)C)cc(F)c1-c1nn[nH]n1 (stereo not shown) [Compound A-181, 3-[[3-ethyl-4-[3-fluoro-5-isobutyl-2-(2H-tetrazol-5-yl)phenyl]piperazin-1-yl]methyl]pyridazine]
[1]
  fraction unbound: 0.07
  recovery: 96%
[2]
  fraction unbound: 0.12
  recovery: 96%
[3]
  fraction unbound: 0.03
  recovery: 95%

## CC(C)Cc1cc(F)c(-c2nn[nH]n2)c(N2CC(C)N(Cc3cccnn3)CC2C)c1 (stereo not shown) [Compound A-183, 3-[[4-[3-fluoro-5-isobutyl-2-(2H-tetrazol-5-yl)phen-yl]-2,5-dimethyl-piperazin-1-yl]-methyl]pyridazine]
[1]
  fraction unbound: 0.13
  recovery: 90%
[2]
  fraction unbound: 0.23
  recovery: 92%
[3]
  fraction unbound: 0.06
  recovery: 96%

## CC(C)Cc1cc(F)c(-c2nn[nH]n2)c(N2CCN(Cc3ccccn3)[C@@H](C)C2)c1 [Compound A-217, (2S)-4-[3-fluoro-5-isobutyl-2-(2H-tetrazol-5-yl)phenyl]-2-methyl-1-(2-pyridylmethyl)piperazine]
[2]
  fraction unbound: 0.004
  recovery: 98%
[3]
  fraction unbound: 0.004
  recovery: 100%
